Experimental data: patent US12569506B2, “Methods of treating osteonecrosis with LLP2A-bisphosphonate compounds” (The Regents of the University of California, priority 2016, dated 2026)
Entries after “also recorded” stand apart in the source; their conditions may differ.

Assays:
[1] = system: VEGF; assay: Serum VEGF levels by ELISA in glucocorticoid-treated mice; assay type: in vivo; conditions: day 56; GC from day 1; LLP2A-Ale given at day 28; ELISA in duplicate (FIG. 4)
Method: FIG. 4. Serum VEGF-A levels in glucocorticoid-treated mice. Mice treated with placebo (PL), glucocorticoid (GC), glucocorticoid and 250 μg/kg LLP2A-Ale (GC+LLP2A-Ale), glucocorticoid and PTH (GC+PTH), or glucocorticoid and PTH and 250 μg/kg LLP2A-Ale (GC+PTH+LLP2A-Ale) were measured for serum levels of VEGF.
Increased blood vessel formation can also be assessed by marker analysis. For example, VEGF is a pro-angiogenic factor and stimulates new blood vessel formation. […] PTH was given 20 ug/kg 5× a week, while LLP2A-Ale was given at […] at day 28 only.

[2] = system: glucocorticoid-treated mice; assay: Trabecular bone volume in glucocorticoid-treated mice; assay type: in vivo; conditions: GC 28 days then treatment
Method: FIG. 6. Trabecular bone volume in glucocorticoid-treated mice. Mice were treated for 28 days with glucocorticoid (GC), then treated with either LLP2A-Ale, PTH, or LLP2A-Ale+PTH. The outcome measure was the change in trabecular bone mass from day 28 to 56, measured in vivo at the distal femur (left panel) and change in trabecular bone mass for the vertebral trabecular bone volume (right panel).
Changes in trabecular bone mass during the treatment period for the distal femur and vertebral trabecular bone volume were measured.

[3] = system: dexamethasone-treated mice; assay: Empty lacunae density in distal femoral epiphysis, 90 day model; assay type: in vivo, BALB/c mice; conditions: day 90
Method: FIG. 8A-8B. Empty lacunae density of femurs from in dexamethasone-treated mice. Mice treated with placebo (PL), dexamethasone alone (Dex), Dex+250 μg/kg LLP2A-Ale, Dex+500 μg/kg LLP2A-Ale, or Dex+750 μg/kg LLP2A-Ale as described above for FIG. 7 were assessed for empty lacunae density within the distal femoral epiphysis region. Empty lacunae density was calculated by determining the number of empty lacunae in the entire distal femoral epiphysis region divided by the total number of osteocytes within the same region for each specimen. In the Dex only group, 75% of the samples had 10% or more empty lacunae, as compared to 44-62% of the samples in LLP2A-Ale-treated groups. A higher number of LLP2A-Ale 250 μg/kg, LLP2A-Ale 500 μg/kg, and LLP2A-Ale 750 μg/kg—treated samples had less than 10% empty lacunae as compared to Dex only treatment.
Both the right and left distal femurs were fixed in 10% neutral buffered formalin and were shaken for 3 days, then decalcified in 5% EDTA until the bones were fully decalcified. The specimens were then processed in ascending concentrations of ethanol and embedded in paraffin. Tissue sections were cut into 5 microns sections, stained with hematoxylin and eosin and evaluated for the presence of osteonecrosis by bright field microscopy at 20× magnification. […] Osteonecrosis was detected using modified criteria reported by Yang el al., (a mouse model for glucocorticoid-induced osteonecrosis: Effect of a steroid holiday. J Orthop Res. 2009; 27:169-75) which defines osteonecrosis as requiring all of the following changes: (1) empty lacunae, (2) pyknotic osteocyte nuclei in areas of empty lacunae and necrosis of adjacent bone marrow, (3) presence of excessive fat cells in the bone marrow, (4) cartilage degradation and (5) presence of fibrin thrombi in the blood vessels. In addition, trabecular bone volume, adipose volume, sinusoid volume and osteoblast surface at the distal femoral epiphyses were measured. Empty lacunae density was calculated by empty lacunae/total osteocytes within the entire distal femoral epiphysis region for each sample. […]

Structure (SMILES): Cc1ccccc1NC(=O)Nc1ccc(CC(=O)N[C@@H](CCCCNC(=O)/C=C/c2cccnc2)C(=O)N[C@@H](CCCC(=O)O)C(=O)NC2(C(=O)NCCOCCOCCNC(=O)CCC(=O)NCCOCCOCCNC(=O)CCC(=O)N[C@@H](CCCCNC(=O)[C@H](N)CSC3CC(=O)N(CC4CCC(C(=O)NCCCC(O)(P(=O)(O)O)P(=O)(O)O)CC4)C3=O)C(N)=O)CCCCC2)cc1 (some centres unmarked) [LLP2A-Ale]
- Serum levels of VEGF [1]: returned the levels of serum VEGF to those of placebo treated animals
- Change in trabecular bone mass/volume at the distal femur ([2]; change from day 28 to 56, measured in vivo (FIG. 6 left)): increased the distal femur trabecular bone volume to the baseline/sham level
- Vertebral trabecular bone volume ([2]; day 28 to 56 (FIG. 6 right)): increased the bone volume relative to the glucocorticoid-treated mice
- Samples with less than 10% empty lacunae ([3]; LLP2A-Ale 250, 500, 750 μg/kg vs Dex only): more samples; also recorded: higher number
- Samples with 10% or more empty lacunae ([3]; distal femoral epiphysis, Dex only vs LLP2A-Ale 250, 500, 750 μg/kg groups (FIG. 8A-B)): 44-62%
